Converted amounts (≈) assume the structure as drawn.
How the values were obtained:
physchem [1] = conditions: aqueous with cosolvent or surfactant or cyclodextrin, kinetic from dmso stock
Plasma stability, mouse = assay type: in vitro ADME; conditions: read-out: Plasma t1/2 Mouse
[2] = Liver microsome stability, mouse; assay type: in vitro ADME; conditions: mouse liver microsomes; read-out: Liver microsome t1/2 Mouse
[3] = target: T1, S. cerevisiae ALS wild type (Saccharomyces cerevisiae, UniProt P07342); test: ALS biochemical assay (ScALS), wild type
T1 construct: made in house; host or cells: E. coli BL21 (DE3), pET28a-ScILV2
T1 sequence (P07342 58-687): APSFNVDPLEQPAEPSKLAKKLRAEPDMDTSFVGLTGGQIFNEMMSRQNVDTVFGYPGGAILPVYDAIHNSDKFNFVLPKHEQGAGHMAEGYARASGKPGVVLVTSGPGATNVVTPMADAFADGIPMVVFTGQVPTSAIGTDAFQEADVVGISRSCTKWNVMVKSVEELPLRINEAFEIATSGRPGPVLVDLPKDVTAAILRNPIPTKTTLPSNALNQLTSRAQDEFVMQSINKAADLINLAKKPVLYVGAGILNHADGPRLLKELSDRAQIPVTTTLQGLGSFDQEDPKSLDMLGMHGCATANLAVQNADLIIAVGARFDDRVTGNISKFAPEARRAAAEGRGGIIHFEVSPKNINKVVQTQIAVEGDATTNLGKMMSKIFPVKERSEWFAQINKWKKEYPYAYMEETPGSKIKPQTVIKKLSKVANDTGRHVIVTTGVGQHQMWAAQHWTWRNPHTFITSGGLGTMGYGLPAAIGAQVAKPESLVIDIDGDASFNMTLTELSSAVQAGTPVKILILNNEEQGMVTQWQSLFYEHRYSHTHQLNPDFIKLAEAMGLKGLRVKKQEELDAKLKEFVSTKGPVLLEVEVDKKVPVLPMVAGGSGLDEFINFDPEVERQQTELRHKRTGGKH
Procedure: (§1) ALS biochemical assay (ScALS)
(§2) Saccharomyces cerevisiae acetohydroxyacid synthase (ScALS) lacking the N-terminal […]
(§3) Escherichia coli as an N-terminally His6-tagged protein. Assays (50 µL final volume) contained […]
(§4) adenine dinucleotide, 10 mM MgCl2, 1 mM DTT, 1% DMSO (± inhibitor) in 500 mM K2HPO4 buffer at pH 7.5. Following a 30 min pre-incubation of the enzyme and inhibitor in the reaction mixture at room temperature, reactions were initiated with the addition of pyruvate. ScALS assays were carried out at 30 °C for 60 min. The reaction was quenched with the addition of 5 µL of 10% H2SO4 (v/v in deionized water). Reactions were incubated at 60 °C at 800 rpm in an […]
(§5) to acetoin. Subsequently, the concentration of acetoin was determined by the addition of 7.5 µL 6 M NaOH, 25 µL 0.5% creatine (w/v in deionized water), and 25 µL 4% 1-naphthol (w/v in 2.5 M NaOH). This mixture was incubated at 60 °C at 800 rpm in an incubating microplate shaker for […]
(§6) 40 µL of this reaction mixture was transferred to a half area UV-star 96-well plate (Grenier) and the absorbance at 525 nm was measured on a Spark multimode plate reader (Tecan). The percent inhibition was calculated by the comparison of the signal to DMSO (0% […]
(§7) IC50 values were calculated from the dose response curves using Prism 9 (four parameter, variable slope). […]
(§8) Expression and purification of ScALS
(§9) S. cerevisiae ILV2 (the gene or ScALS) lacking the N-terminal mitochondrial-localization tag

S. cerevisiae ALS P192S = target: T2, S. cerevisiae ALS P192S (Saccharomyces cerevisiae, UniProt P07342, P192S); test: biochemical; assay type: biochemical
T2 construct: His6 (followed by a TEV protease site, pET28a) (N); made in house; host or cells: E. coli (inferred from the ScALS method)
T2 sequence (P07342 58-687 P192S): as the sequence (P07342 58-687) above, with P135S counted along it
Procedure: as §1, §2, §3, §4, §5, §6, §7, §8, §9

A. fumigatus ALS = A. fumigatus ALS (Aspergillus fumigatus, UniProt Q4WXQ3); test: ALS biochemical assay (AfALS)
Chain of A. fumigatus ALS (Q4WXQ3 entry or part of it): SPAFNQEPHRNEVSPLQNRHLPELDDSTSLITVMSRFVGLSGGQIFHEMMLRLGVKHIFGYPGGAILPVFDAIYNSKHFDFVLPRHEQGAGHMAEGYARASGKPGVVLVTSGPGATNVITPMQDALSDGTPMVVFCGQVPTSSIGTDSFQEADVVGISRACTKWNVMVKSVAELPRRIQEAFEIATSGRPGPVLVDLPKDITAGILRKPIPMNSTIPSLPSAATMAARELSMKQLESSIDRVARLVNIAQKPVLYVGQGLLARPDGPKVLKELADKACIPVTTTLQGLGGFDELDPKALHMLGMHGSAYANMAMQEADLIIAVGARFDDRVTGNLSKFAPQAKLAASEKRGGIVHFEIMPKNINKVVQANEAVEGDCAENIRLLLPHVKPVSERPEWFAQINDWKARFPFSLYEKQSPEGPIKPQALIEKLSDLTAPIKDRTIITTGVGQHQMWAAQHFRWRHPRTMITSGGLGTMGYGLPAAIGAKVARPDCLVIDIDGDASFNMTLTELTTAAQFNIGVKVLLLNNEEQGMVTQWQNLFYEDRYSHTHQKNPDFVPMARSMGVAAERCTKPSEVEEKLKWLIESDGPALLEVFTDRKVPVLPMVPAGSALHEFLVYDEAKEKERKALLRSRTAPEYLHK
Procedure: ALS biochemical assay (AfALS)
Aspergillus fumigatus acetohydroxyacid synthase (AfILV2) lacking the N-terminal mitochondrial-targeting sequence (amino acids 112-752) was overproduced and isolated from E. coli as an N-terminally His6-tagged protein. Assays (50 µL final volume) contained 200 nM His6-AfALS, 8 mM pyruvate, 1 mM thiamine pyrophosphate, and 10 µM flavin adenine dinucleotide, 10 mM MgCl2, 1 mM DTT, 1% DMSO (± inhibitor) in 200 mM KH2PO4 buffer at pH
7.5. Following a 30 min pre-incubation of the enzyme and inhibitor in the reaction mixture at room temperature, reactions were initiated with the addition of pyruvate. AfALS assays were carried out at 30 °C for 120 min. The reaction was quenched with the addition of 5 µL of 10% H2SO4 (v/v in deionized water). Reactions were incubated at 60 °C at incubating microplate shaker for 15 min to convert the product of the ALS reaction, acetolactate, to acetoin.
Subsequently, the concentration of acetoin was determined by the addition of 7.5 µL 6 M NaOH, 25 µL 0.5% creatine (w/v in deionized water), and 25 µL 4% 1-naphthol (w/v in 2.5 M NaOH).
This mixture was incubated at 60 °C in an incubating microplate shaker for 15 min. 40 µL of this reaction mixture was transferred to a half area UV-star 96-well plate (Grenier) and the absorbance at 525 nm was measured on a Spark multimode plate reader (Tecan). The percent inhibition was calculated by the comparison of the signal to DMSO (0% inhibition) and no enzyme (100% inhibition) controls. IC50 values were calculated from the dose response curves using Prism 9 (four parameter, variable slope). […]
(amino acids 58-687) was codon optimized for expression in E. coli and synthesized by […]

physchem [4] = conditions: buffer, pH 7.4
AfALS = test: Intact protein mass spectrometry; assay type: binding, Aspergillus fumigatus; conditions: 10 μM, 30 min
Source text: We next characterized the structural basis for binding of 1 to ALS. Given the strained structure and the observed tight binding kinetics, we hypothesized that 1 may be binding covalently. Analysis of ALS from both AfALS and ScALS by intact protein mass spectrometry yielded traces with multiple proteoforms for both proteins. […] Limited proteolysis followed by peptide mapping localized the covalent attachment to the 239[…]258 peptide of ScALS with Lys251 and Asp252 (equivalent to Lys310 and Asp311 in AfALS) serving as the most likely attachment sites (Figure S7).

[5] = design: method as in PMID 41148120; conditions: another study; cited from earlier work

SMILES: CCCC1C(C)=CC2CC=CC3(C)C2C1C(=O)C31C(=O)NC(CCCO)C1=O (centres unmarked) [compound 1]
- solubility kinetic (physchem [1]): 260 µM (≈ 100 µg/mL)
- half-life (Plasma stability, mouse): 1.47 h
- half-life [2]: 3 min
- potency against ScALS compared with diastereomer 13 ([3]; Figure S6): significantly more potent
- IC50 ([3]; recombinant ScALS, read-out: S. cerevisiae ALS IC50 Wild type): 15 ± 1 nM
- IC50 (S. cerevisiae ALS P192S): 66 ± 9 nM
- shift in potency, P192S mutant ScALS compared to wild-type ScALS (S. cerevisiae ALS P192S): 4 fold
- IC50 (A. fumigatus ALS): 49 ± 8 nM
- half-life (physchem [4]): 2.35 h
- covalent modification of AfALS (intact mass shift) (AfALS): mass shifts consistent with covalent addition
- herbicidal activity [5]: modest herbicidal activity
